Measurements published in PubChem BioAssay AID1324 (NMMLSC, 2008).
The source made the active and inactive calls. How the calls were made is not given here.

biological target: glutathione S-transferase (GST-GSH binding); test: GST–glutathione interaction disruption – biochemical, multiplex beads, flow cytometry, HPSMTB buffer, profiling panel (AID 1324); conditions: multiplex bead flow cytometry, MCF, concentration not given here;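 further: glutathione beads loaded with GST-green fluorescent protein and no fluorescent Bim peptide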

Row | Compound | percent span inhibition
1 | Nc1ccc(N2CCCCCC2)cc1 | inactive
2 | O=C(COc1ccccc1)Nc1ccc2c(c1)Cc1cc(NC(=O)COc3ccccc3)ccc1-2 | inactive
3 | COc1cc(/C=C2\CC/C(=C\c3cc(OC)c(O)c(OC)c3)C2=O)cc(OC)c1O | inactive
4 | CC(C)CN1C(=O)/C(=C/c2ccco2)NC1=S | inactive
5 | O=c1c2c(n3nnnc3n1Cc1ccccc1)-c1ccccc1CC21CCCC1 | inactive
6 | Cc1cccc(NC(=S)N2CCn3cccc3C2c2cccnc2)c1 (stereo not given) | inactive
7 | CCN1C(=O)/C(=C\C=C2/C=CC=CN2CC)SC1=S | inactive
8 | O=C(CSc1ccc2nnc(-c3ccncc3)n2n1)Nc1nccs1 | inactive
9 | c1ccc(-c2nnc(OCCN3CCOCC3)c3ccccc23)cc1 | inactive
10 | CN(C)/C=C/C(=O)c1ccc(C(F)(F)F)cc1F | inactive
11 | Cc1ccc(/C=C2\CCCC3=C2NC(=S)NC3c2ccc(C)cc2)cc1 (stereo not given) | inactive
12 | O=C(NCCCN1CCCC1=O)NC1CCCCC1 | inactive
13 | CC(C)(C)C(=O)NC(NC(=S)Nc1ccc(S(N)(=O)=O)cc1)C(Cl)(Cl)Cl (stereo not given) | inactive
14 | Cc1cc(Cl)ccc1N=c1ssnc1Cl | inactive
15 | Nc1c(C(=O)NCC2CCCO2)sc2nc3c(c(-c4ccco4)c12)CC/C3=C\c1ccco1 (stereo not given) | inactive
16 | Brc1ccc2ncnc(Nc3ccc(N4CCOCC4)cc3)c2c1 | inactive
17 | CC(=O)Nc1ccc(-n2cc(-c3ccccc3)[nH]c2=S)cc1 | inactive
18 | Clc1nc(NCc2cccnc2)nc(N2CCOCC2)n1 | inactive
19 | CCN(CC)c1ccc(Nc2nc(N3CCOCC3)c3ccccc3n2)cc1 | inactive
20 | CCN1CCN(CC(=O)c2c[nH]c3ccc(C)cc23)CC1 | inactive
21 | N#C/C(=C(/O)CN1CCN(c2ccccc2F)CC1)c1nc(-c2ccccc2)cs1 | inactive
22 | CN(C)S(=O)(=O)N(CC(=O)Nc1ccccc1C(F)(F)F)c1ccccc1 | inactive
23 | O=C(COC(=O)c1ccccn1)NC1CCCCC1 | inactive
24 | O=[N+]([O-])c1ccc(-c2cn(-c3ccc(Cl)cc3)c(=S)[nH]2)cc1 | inactive

Next, values leading:

Row | percent span inhibition | Compound
25 | inactive | Cc1ccc(SCCC(=O)Nc2ccc(Br)c(C)c2)cc1
26 | inactive | COc1ccc(C(=S)N2CCCCCC2)cc1
27 | inactive | O=C(Oc1ccc(-c2cnc3ccccc3n2)cc1)c1cccc([N+](=O)[O-])c1
28 | inactive | O=c1nc2c(O)cccn2c2c1c(=O)[nH]c1ccccc12
29 | inactive | COc1ccc2nc(C)cc(SCC(=O)N/N=C/c3ccc(O)c(O)c3)c2c1
30 | inactive | CCc1nnc(NC(=O)CSc2nnc(COc3ccc(C)cc3)n2-c2ccccc2)s1
31 | inactive | Cc1ccc(C(NC(=O)C(C)C)c2cc([N+](=O)[O-])c3cccnc3c2O)cc1 (stereo not given)
32 | inactive | CCC(=O)N(CC)C1=C(O)c2ccccc2C(=O)C1=O
33 | inactive | COc1ccc(Cc2c(O)nc(SC)n(C(C)=O)c2=O)cc1
34 | inactive | COc1ccc(N=C2NC(=O)/C(=C\C=C\c3ccco3)S2)cc1
35 | inactive | CNC(=O)CC1C(=O)N(Cc2ccccc2)C(=S)N1NC(=O)c1cccc(F)c1 (stereo not given)
36 | inactive | COc1cc(C=Nc2cccc(C)c2)c(O)c([N+](=O)[O-])c1
37 | inactive | Cc1cc(C(=O)NCCCN(C)C)c2ccccc2n1
38 | inactive | CSc1ccccc1NC(=O)CN(C)CC(=O)Nc1ccc(N2CCOCC2)cc1
39 | inactive | COc1ccc(N2CCN(CCCNC(=O)CCCn3c(=O)[nH]c4ccsc4c3=O)CC2)cc1
40 | inactive | COC(=O)c1ccc(C)c(NC(=O)CCNC(=O)c2ccc([N+](=O)[O-])cc2)c1
41 | inactive | COc1cccc(C(=O)/C=C/Nc2ccc(S(=O)(=O)Nc3onc(C)c3C)cc2)c1
42 | inactive | CCCCN(C(=O)CCC(=O)Nc1cc(C)on1)C(C(=O)NC(C)(C)C)c1cccc(OC)c1OC (stereo not given)
43 | inactive | COc1ccccc1Cn1nnc2c(=O)[nH]c(C3CCN(C(=O)c4ccc(C)cc4)CC3)nc21
44 | inactive | O=C(/C=C/c1ccccc1Cl)c1ccccc(=O)c1O
45 | inactive | COc1ccc(-c2noc(COc3ccc4c(c3)OCO4)n2)cc1OC
46 | inactive | O=C(Cn1cncc1-c1ccc([N+](=O)[O-])cc1)Nc1ccccc1F
47 | inactive | COc1ccc(/C=C2\SC(=O)NC2=S)cc1OC
48 | inactive | COc1ccc(COC(=O)NNC(=O)c2ccccc2Cl)cc1
49 | inactive | O=C1c2ccccc2C(=O)N1CN(C(=O)COc1ccc(Cl)cc1Cl)c1cccc(F)c1
50 | inactive | Cc1ccc(CC(=O)OCCNC(=O)c2cccnc2)cc1
